Test system: severe traumatic brain injury (sTBI)
Assay: sTBI in rats, brain gene expression arrays and pathway analysis (Example 9)
Assay type: in vivo, Male Wistar rats
Design: key to z score, canonical pathway Dendritic Cell Maturation / z score, canonical pathway Adrenomedullin Signaling pathway / z score, canonical pathway Endothelin-1 Signaling / effect on canonical pathway Adrenomedullin Signaling pathway / effect on canonical pathway Endothelin-1 Signaling / effect on canonical pathway Dendritic Cell Maturation / Ingenuity canonical pathway Adrenomedullin signaling pathway, z score / Ingenuity canonical pathway FLT3 Signaling in Hematopoietic Progenitor Cells, z score / Ingenuity canonical pathway Opioid Signaling Pathway, z score / Ingenuity canonical pathway VDR/RXR Activation, z score / Ingenuity canonical pathway Neuropathic Pain Signaling In Dorsal Horn Neurons, z score / Ingenuity canonical pathway STAT3 Pathway, z score / Ingenuity canonical pathway IL-1 Signaling, z score / Ingenuity canonical pathway IL-6 Signaling, z score / Ingenuity canonical pathway NF-κB Signaling, z score / Ingenuity canonical pathway Role of NFAT in Cardiac Hypertrophy, z score / Ingenuity canonical pathway PPARα/RXRα Activation, z score: *: ambiguous effect
Conditions: TBI + 5 mg/kg LMW-DS, 7 days after TBI
Experimental: The experimental protocol used in this study was approved by the Ethical Committee of the Catholic University of Rome, according to international standards and guidelines for animal care. Male Wistar rats of 300-350 g body weight were fed with standard laboratory diet and water ad libitum in a controlled environment. As the anesthetic mixture, the animals received 35 mg/kg b.w. ketamine and 0.25 mg/kg body weight midazolam by i.p. injection. Severe traumatic brain injury (sTBI) was induced by dropping a 450 g weight from 2 m height on to the rat head that had been protected by a metal disk previously fixed on the skull, according to the “weight drop” impact acceleration model (Marmarou et al., A new model of diffuse brain injury in rats. Part I: Pathophysiology and biomechanics. J Neurosurg. 1994; 80: 291-300). […] At the end of each period of treatment, rats were anesthetized again and then immediately sacrificed.
LMW-DS (Tikomed AB) was provided at a stock concentration of 20 mg/ml and was kept in a temperature-monitored refrigerator at 4° C. LMW-DS aliquots were diluted to the appropriate dosing concentration in sterile saline prior to delivery of a single subcutaneous injection.
Three doses of LMW-DS were administered subcutaneously 30 minutes post-TBI. The animals were sacrificed at 2 days post-TBI. The animals were divided into the following subgroups:
Three doses of LMW-DS were administered subcutaneously 30 minutes post-TBI. The animals were sacrificed at 7 days post-TBI. The animals were divided into the following subgroups:
An in vivo craniectomy was performed on all animals during anesthesia. After carefully removing the rat's skull, the brain was exposed and removed with a surgical spatula and quickly dropped in RNALater and preserved at 4° C. for further processing.
RNA extraction and array processing was carried out by SourceBioscience. The arrays used were the Agilent Rat expression arrays.
Statistical analysis was carried out using the Metaboanalyst software package. Gene expression changes of 10% with a p<0.05 were regarded as significant.
Pathway analysis of the differentially regulated genes was carried out using the Ingenuity pathway analysis package. The analysis was performed with special reference to pathways and molecular processes and diseases associated with neurodegenerative disease, including dementia, Alzheimer's disease, ALS, TBI and stroke, and with scarring and fibrosis, including glaucoma and normal pressure hydrocephalus (NPH) after subarachnoid haemorrhage.

low molecular weight dextran sulfate [LMW-DS]
z score: Cellular homeostasis: 1.615 | z score: Chemotaxis: 1.873 | z score: Concentration of lipid: −0.575 | z score: Development of body axis: 1.213 | z score: Development of body trunk: 1.09 | z score: Development of carcinoma: 0.152 | z score: Development of connective tissue cells: 1.638 | z score: Development of epithelial tissue: 0.262 | z score: Development of genitourinary system: −0.336 | z score: Development of head: 1.213 | z score: Development of neurons: 1.106 | z score: Development of sensory organ: 0.669 | z score: Development of vasculature: 0.295 | z score: Differentiation of bone: 1.012 | z score: Differentiation of bone cells: 0.85 | z score: Differentiation of connective tissue cells: 0.769 | z score: Digestive organ tumor: −1.348 | z score: Digestive system cancer: −1.792 | z score: Endocrine gland tumor: −0.067 | z score: Expression of RNA: 1.797 | z score: Extracranial solid tumor: 0.369 | z score: Failure of kidney: 0.555 | z score: Formation of eye: 1.664 | z score: Gastrointestinal tumor: −1.215 | z score: Genital tumor: 0.305 | z score: Genitourinary carcinoma: 1.131 | z score: Genitourinary tumor: 1.388 | z score: Glucose metabolism disorder: 0.439 | z score: Growth of connective tissue: −0.324 | z score: Growth of epithelial tissue: −1.58 | z score: Growth of tumor: 2.295 | z score: Head and neck cancer: −1.154 | z score: Head and neck tumor: −0.355 | z score: Hematologic cancer: −1.725 | z score: Hematologic cancer of cells: −1.486 | z score: Hematopoietic neoplasm: −1.002 | z score: Intestinal tumor: −1.09 | z score: Invasion of cells: 1.32 | z score: Leukocyte migration: 3.062 | z score: Lymphatic system tumor: −0.956 | z score: Lymphocytic cancer: −1.486 | z score: Lymphocytic neoplasm: −1.486 | z score: Lymphoid cancer: −0.956 | z score: Lymphoma: −1.224 | z score: Lymphoproliferative disorder: −1.727 | z score: Lymphoreticular neoplasm: −1.224 | z score: Malignant genitourinary solid tumor: 0.346 | z score: Malignant solid tumor: 0.423 | z score: Microtubule dynamics: 1.82 | z score: Migration of cells: 2.659 | z score: Migration of endothelial cells: 2.16 | z score: Morbidity or mortality: −2.848 | z score: Necrosis: 0.228 | z score: Necrosis of epithelial tissue: 1.674 | z score: Neoplasia of cells: 0.474 | z score: Neoplasia of leukocytes: −1.486 | z score: Non-hematologic malignant neoplasm: −0.243 | z score: Non-hematological solid tumor: 0.021 | z score: Non-melanoma solid tumor: 0.01 | z score: Obesity: 0.493 | z score: Organismal death: −2.885 | z score: Organization of cytoskeleton: 2.174 | z score: Pelvic tumor: 0.445 | z score: Peripheral vascular disease: 1 | z score: Proliferation of connective tissue cells: −0.747 | z score: Proliferation of epithelial cells: −1.196 | z score: Quantity of cells: 0.634 | z score: Quantity of connective tissue: 0.609 | z score: Renal impairment: 0.555 | z score: Secretion of molecule: 1.386 | z score: Sensory system development: −0.307 | z score: Size of body: 0.748 | z score: Skin lesion: −0.111 | z score: Skin tumor: −2.396 | z score: Solid tumor: 1.29 | z score: Synthesis of lipid: 1.937 | z score: Transcription: 1.317 | z score: Transcription of RNA: 1.221 | z score: Transport of molecule: 1.854 | z score: Tumorigenesis of tissue: −0.832 | z score: Vasculogenesis: 0.507 | Ingenuity canonical pathway Acute Phase Response Signaling, z score (relative to control): 1.89 | Ingenuity canonical pathway Adrenomedullin signaling pathway, z score (relative to control): −0.632 | Ingenuity canonical pathway Cardiac Hypertrophy Signaling, z score (relative to control): 1 | Ingenuity canonical pathway Colorectal Cancer Metastasis Signaling, z score (relative to control): −0.378 | Ingenuity canonical pathway Dendritic Cell Maturation, z score (relative to control): 1.897 | Ingenuity canonical pathway ERK5 Signaling, z score (relative to control): −0.447 | Ingenuity canonical pathway ERK/MAPK Signaling, z score (relative to control): 1 | Ingenuity canonical pathway Endothelin-1 Signaling, z score (relative to control): 1.633 | Ingenuity canonical pathway Fcγ Receptor-mediated Phagocytosis in Macrophages and Monocytes, z score (relative to control): 2.236 | Ingenuity canonical pathway GNRH Signaling, z score (relative to control): 2 | Ingenuity canonical pathway HMGB1 Signaling, z score (relative to control): 1.134 | Ingenuity canonical pathway IL-1 Signaling, z score (relative to control): 1 | Ingenuity canonical pathway IL-6 Signaling, z score (relative to control): 1 | Ingenuity canonical pathway IL-8 Signaling, z score (relative to control): 2.646 | Ingenuity canonical pathway ILK Signaling, z score (relative to control): 1.89 | Ingenuity canonical pathway Leukocyte Extravasation Signaling, z score (relative to control): 1.342 | Ingenuity canonical pathway NF-κB Signaling, z score (relative to control): * | Ingenuity canonical pathway Neuroinflammation Signaling Pathway, z score (relative to control): 1.941 | Ingenuity canonical pathway Opioid Signaling Pathway, z score (relative to control): * | Ingenuity canonical pathway Osteoarthritis Pathway, z score (relative to control): −1 | Ingenuity canonical pathway PI3K Signaling in B Lymphocytes, z score (relative to control): 1.89 | Ingenuity canonical pathway PKCθ Signaling in T Lymphocytes, z score (relative to control): 2 | Ingenuity canonical pathway PPAR Signaling, z score (relative to control): −1.342

Reference: patent publication US11534457B2, “Use of dextran sulfate” (priority 2017, dated 2022)
